Source: patent publication US8568736B2, “Polypeptide derivatives of parathyroid hormone (PTH)” (The General Hospital Corporation, priority 1999, dated 2013)
No end group written: not given here.

Target: T1, PTH-1 receptor (Homo sapiens, UniProt Q03431)
T1 sequence (Q03431 27-593): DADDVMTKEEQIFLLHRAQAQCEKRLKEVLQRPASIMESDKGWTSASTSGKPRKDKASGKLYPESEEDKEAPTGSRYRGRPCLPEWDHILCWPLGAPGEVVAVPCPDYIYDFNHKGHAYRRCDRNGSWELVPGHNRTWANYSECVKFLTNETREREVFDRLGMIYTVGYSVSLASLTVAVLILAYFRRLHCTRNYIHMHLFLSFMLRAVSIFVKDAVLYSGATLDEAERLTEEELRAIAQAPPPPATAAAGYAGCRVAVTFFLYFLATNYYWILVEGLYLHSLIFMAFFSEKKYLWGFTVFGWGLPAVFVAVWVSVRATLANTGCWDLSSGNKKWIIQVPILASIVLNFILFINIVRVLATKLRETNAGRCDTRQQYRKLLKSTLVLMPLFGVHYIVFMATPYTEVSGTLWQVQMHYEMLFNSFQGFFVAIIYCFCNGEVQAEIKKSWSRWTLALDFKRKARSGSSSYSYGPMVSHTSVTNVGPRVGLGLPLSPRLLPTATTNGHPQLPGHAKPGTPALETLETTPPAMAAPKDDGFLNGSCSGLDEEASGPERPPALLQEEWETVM
Assay: Competition binding with 125I-rPTH(1-34) in HKRK-B7 cells
Design: expressed in transfected cells; host or cells: LLC-PK1 porcine kidney cells, clone HKRK-B7
Conditions: 125I-rPTH(1-34) tracer
Procedure: Binding reactions were performed with stably transfected HKRK-B7 cells in 24-well plates. Cells were rinsed with 0.5 mL of binding buffer (50 mM Tris-HCl, 100 mM NaCl, 5 mM KCl, 2 mM CaCl2, 5% heat-inactivated horse serum, 0.5% fetal bovine serum, adjusted to pH 7.7 with HCl), and treated successively with 100 μL binding buffer, 100 μL of binding buffer containing various amounts of unlabeled competitor ligand, and 100 μL of binding buffer containing ca. 100,000 cpm of ^125I-rPTH(1-34) (ca. 26 fmol). Incubations (final volume=300 μL) were at 15° C. for 4 h. Cells were then placed on ice, the binding medium was removed, and the monolayer was rinsed three times with 0.5 mL of cold binding buffer. The cells were subsequently lysed with 0.5 mL 5N NaOH and counted for radioactivity. The nonspecific binding for each experiment was determined by competition with a 1 μM dose of unlabeled rPTH(1-34). The maximum specific binding (B0) was the total radioactivity bound in the absence of unlabeled PTH ligand, corrected for nonspecific binding. Binding IC50 values were determined using nonlinear regression (see below).
All calculations were performed using Microsoft Excel. […] The predicted response (yp) for a given dose (x) of peptide was calculated using the following equation: yp=Min+[(Max−Min)/(1+(EC50/x)^slope)]. […]

## AVAEIQLMHARAKHLNSMERVEWLRKKLQDVHNY-NH2 [Peptide #7]
  improvement in binding affinity as compared to rPTH(1-34): about 2 fold
